This note sets out measurements from ChEMBL document CHEMBL3045162, “Inhibition of HIV-1 replication by a tricyclic coumarin GUT-70 in acutely and chronically infected cells” (Bioorg Med Chem Lett, 2013).

The source made the active and inactive calls. No cut-off for these calls is given here.

Series [1] deals with U1. Put plainly: Inhibition of NF-kappaB-mediated viral replication in Homo sapiens (human) U1 cells […] at 10 uM after 24 hr by RT-PCR analysis in presence of TNF-alpha. Format: cell-based.
In series [2] the target is Transcription factor p65 (Homo sapiens) (UniProt Q04206). Description: Inhibition of NF-kappa B p65 nuclear translocation in TNFalpha-treated Homo sapiens (human) U1 cells after 0.5 to 6 hr by Western blot analysis. Format: cell-based.
For series [3], the system named is Human immunodeficiency virus 1. Description: Antiviral activity against X4 tropic Human immunodeficiency virus 1 NL4-3 infected human Molt4 cells assessed as intracellular p24 expression after 4 to 7 days by flow cytometry. Format: functional, organism-based. The conditions noted are these: Human immunodeficiency virus 1, NL4-3, MOLT-4. In general terms: In flow cytometry, cells or beads pass a laser one at a time.

Series [4] has as its system MOLT-4. Put plainly: Inhibition of NF-kappaB-mediated viral replication in Homo sapiens (human) Molt-4 cells infected with X4 tropic HIV1 NL4-3 at 10 uM after 24 hr by RT-PCR analysis. Format: cell-based.
The test system of series [5] is Human immunodeficiency virus 1. Description: Antiviral activity against X4 tropic Human immunodeficiency virus 1 NL4-3 infected human Molt4 cells assessed as intracellular p24 expression at 10 uM after 7 days by flow cytometry. Format: functional, organism-based. The conditions noted are these: MOLT-4.
Series [6] deals with Transcription factor p65 (Homo sapiens) (UniProt Q04206). Description: Inhibition of NF-kappa B p65 activity in TNFalpha-treated Homo sapiens (human) U1 cells at 10 uM after 2 to 4 hr by luciferase assay. Format: cell-based.
Series [7] relates to Human immunodeficiency virus 1. Description: Antiviral activity against X4 tropic Human immunodeficiency virus 1 NL4-3 infected human Molt4 cells assessed as intracellular p24 expression at 10 uM after 4 days by flow cytometry. Format: functional, organism-based. The settings on record: MOLT-4.
The test system of series [8] is TZM-bl. Put plainly: Inhibition of NF-kappaB-mediated viral replication in Homo sapiens (human) TZM-bl cells infected with X4 tropic HIV1 NL4-3 compound pre-treated for 2hr before infection measured after 24 hr by luciferase assay. Format: cell-based.
Series [9] can be described thus: Selectivity index, ratio of IC50 for PMA-stimulated human U1 cells to EC50 for X4 tropic HIV1 NL4-3 infected in PMA-stimulated human U1 cells. Format: toxicity, cell-based. The conditions noted are these: with X4 tropic HIV1 NL4-3, read-out: Ratio IC50/EC50.
A short description of series [10]: Selectivity index, ratio of IC50 for TNF-alpha-stimulated human U1 cells to EC50 for X4 tropic HIV1 NL4-3 infected in TNF-alpha-stimulated human U1 cells. Format: toxicity, cell-based. The settings on record: with X4 tropic HIV1 NL4-3, read-out: Ratio IC50/EC50.
Series [11] can be described thus: Selectivity index, ratio of IC50 for human MOLT4 cells to EC50 for X4 tropic HIV1 NL4-3 infected in human Molt4 cells. Format: toxicity, cell-based, MOLT-4. The settings on record: read-out: Ratio IC50/EC50.
The nature of series [12]: Cytotoxicity against Homo sapiens (human) TZM-bl cells by MTT assay. Format: cell-based. A general note: Tetrazolium dyes change colour on reduction, which living cells bring about.
The subject of series [13] is Human immunodeficiency virus 1. Description: Antiviral activity against Human immunodeficiency virus 1 infected U1 cells assessed as intracellular p24 expression after 24 hr by flow cytometry in presence of PMA. Format: functional, organism-based.
Series [14] relates to Human immunodeficiency virus 1. Description: Antiviral activity against Human immunodeficiency virus 1 infected U1 cells assessed as intracellular p24 expression after 24 hr by flow cytometry in presence of TNF-alpha. Format: functional, organism-based.
Series [15] deals with Transcription factor p65 (Homo sapiens) (UniProt Q04206). Description: Reduction in NF-kappa B p65 cytosolic level in TNFalpha-treated Homo sapiens (human) U1 cells after 0.5 to 6 hr by Western blot analysis. Format: cell-based. Background: Immunoblotting shows a protein as a band on a membrane.
Series [16] relates to MOLT-4. Put plainly: Cytotoxicity against Homo sapiens (human) MOLT4 cells by MTT assay. Format: cell-based.
Series [17] relates to U1. Description: Cytotoxicity against Homo sapiens (human) U1 cells by MTT assay in presence of PMA. Format: cell-based.
Series [18] relates to U1. Put plainly: Cytotoxicity against Homo sapiens (human) U1 cells by MTT assay in presence of TNF-alpha. Format: cell-based.
Series [19] concerns the target Transcription factor p65 (Homo sapiens) (UniProt Q04206). Description: Binding affinity to NF-kappa B p65 in Homo sapiens (human) U1 nuclear extract after 0.5 to 4 hr by competitive EMSA.
[20] abbreviates: Human immunodeficiency virus 1, U1, 24 h.

Transcription factor p65 (Homo sapiens), sequence (Q04206 whole entry): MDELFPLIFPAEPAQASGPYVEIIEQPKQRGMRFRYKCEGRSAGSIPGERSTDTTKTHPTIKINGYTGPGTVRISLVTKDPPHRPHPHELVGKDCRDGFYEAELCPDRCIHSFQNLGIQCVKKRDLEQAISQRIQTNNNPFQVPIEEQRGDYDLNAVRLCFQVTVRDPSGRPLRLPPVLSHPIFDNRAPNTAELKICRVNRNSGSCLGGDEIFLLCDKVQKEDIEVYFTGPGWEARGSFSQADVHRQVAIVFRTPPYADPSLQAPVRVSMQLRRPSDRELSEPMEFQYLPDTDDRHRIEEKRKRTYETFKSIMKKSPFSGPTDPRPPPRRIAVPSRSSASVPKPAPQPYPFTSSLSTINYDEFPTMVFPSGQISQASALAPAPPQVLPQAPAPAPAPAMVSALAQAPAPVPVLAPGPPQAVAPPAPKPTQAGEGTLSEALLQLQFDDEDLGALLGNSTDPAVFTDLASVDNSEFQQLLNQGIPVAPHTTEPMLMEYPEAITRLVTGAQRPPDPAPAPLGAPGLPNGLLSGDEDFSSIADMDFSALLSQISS

On to `CC(C)(C)c1ccc(S(=O)(=O)/C=C/C#N)cc1`, for which the inhibition result in series [1] is “Active”.

For `CC(C)C[C@H](NC(=O)[C@H](Cc1ccccc1)NC(=O)c1cnccn1)B(O)O`, the inhibition result in series [1] was “Active”.

For `C/C=C(\C)C(=O)c1c(OC)c2c(c3c(CCC)cc(=O)oc13)OC(C)(C)C=C2`, the inhibition result in [2], in series [1], in series [4], in series [6] and in [8] was “Active” each time. Besides, the EC50 (commonly the concentration giving half of the maximal effect) in [3] amounted to 3.41 µM; in series [13] (setting [20]) it was 3.48 µM; in [14] (setting [20]), 4.32 µM. Moreover, the outcome in [5], in series [7] and in series [19] was Active. Also, the selectivity ratio in series [9] is 2.43; in [10] it was 1.95; in series [11], more than 2.93. Also, the IC50 (as a rule, the concentration needed to halve the response being measured) in [12] is more than 10 µM; in [16], more than 10 µM; in series [17] it was 8.44 µM; in [18], 8.44 µM. Moreover, the Activity entry in [13] and in [14] was “Dose-dependent effect” each time. The result in series [15] was inactive.
